In patent US20260209270A1, “Synthetic Peptide And Construct” (TOAGOSEI CO., LTD., priority 2022, published 2026):
FAM = 5(6)-carboxyfluorescein

System: NSC-34 cells
Experiment: Evaluation of cell membrane permeability by flow cytometry (MFI of FAM fluorescence)
Type: cell-based, mouse
Details: for MFI: NSC-34 cells; for value of MFI compared with Reference Example 1 (FAM alone): 20 μM
Procedure: As a culture medium of the NSC-34 cell, 10% fetal bovine serum (FBS)-containing Dulbecco's modified Eagle's medium (DMEM (Cat No. 044-29765, manufactured by FUJIFILM Wako Pure Chemical Corporation)) was used. The samples 1 to 6 were each dissolved in dimethyl sulfoxide (DMSO) to prepare sample solutions 1 to 6 with a sample concentration of 4 mM. Then, the sample solutions were diluted in the culture medium to prepare 40 μM sample solutions 1 to 6.
The NSC-34 cell was suspended in the culture medium to prepare a cell suspension of 2×10^5 cells/mL. The cell suspension was added by 1 mL to a well of a commercially available six-hole (well) plate (manufactured by AGC TECHNO GLASS Co., Ltd.) so as to seed the NSC-34 cell to be 2× 10^5 cells/well. […] After that, the six-well plate was left at rest in a cell culture apparatus, and incubated for 20 hours at 37° C. under a 5% CO2 condition.
After the 20-hour incubation, the culture supernatant was removed from the well and the cells in the well were cleaned twice with 1 mL of PBS. Next, 100 μL of the 0.25% trypsin/EDTA solution was added to the well and the incubation was performed for three minutes at 37° C. After the incubation, 900 μL of the culture medium was added to the well to deactivate the trypsin. Subsequently, the cell suspension in the well was transferred to a tube and the cells were collected. This tube was subjected to five-minute centrifugal separation at 4° C. under a condition of 210×g. After the centrifugal separation, the supernatant was removed and the precipitate (cell pellet) was suspended (cleaned) with 1 mL of PBS, which was followed by the centrifugal separation under the same condition as that described above. After this operation was repeated twice, the supernatant was removed and thus, the cells (cell pellet) cultured in the culture medium containing the sample 1 were obtained.
Regarding the obtained cells (cell pellet), the cell membrane permeability of the sample 1 was analyzed using a flow cytometer. As the flow cytometer, On-Chip Flowcytometer (manufactured by On-Chip Biotechnologies Co., LTD.) was used.
For such an analysis, the obtained cell pellet was suspended with 100 μL of on-chip T buffer to prepare a cell suspension for analysis.
Using the aforementioned flow cytometer, gating based on forward scatter (FSC) and side scatter (SSC) was performed to set a gate about a cell group to be analyzed, and the fluorescence intensity was measured about the cell group in this gate. Note that the number of cells of the cell group was set to at least 10000 or more in the analysis. The fluorescence intensity was measured using a fluorescence detector FL2 of the flow cytometer (optimum detection wavelength around 543 nm) capable of detecting the fluorescence wavelength of FAM. Regarding this measurement result, the analysis was performed using commercially available analysis software “FlowJo” (manufactured by TreeStar) to obtain mean fluorescence intensity (MFI) of the cell group to be measured. […]

[1] = Test 1, sample/FAM concentration 20 μM in culture medium, 20 hours incubation at 37° C., detector FL2
[2] = Test 2, sample/FAM concentration 25 μM in culture medium, otherwise similar to Test 1

Ac-PEPDG-FAM [Example 4]
MFI [1]: 19.9

Ac-PDPD-FAM [Example 1]
MFI [1]: 15

Ac-PEPE-FAM [Example 2]
MFI [1]: 16.2

Ac-PE-FAM [Example 6]
value of MFI compared with Reference Example 1 (FAM alone) (Test 1): lower | MFI [1]: 7.4

5(6)-carboxyfluorescein [Reference Example 1, reference compound]
MFI [1]: 10.9 | MFI [2]: 13.1

Ac-PD-FAM [Example 5]
value of MFI compared with Reference Example 1 (FAM alone) (Test 1): lower | MFI [1]: 7.8

Ac-PEPEPEPEPEPEG-FAM (Ac-PEPEPEPEPEPEG-{FAM}) [Example 8, construct: N-terminally acetylated peptide 8 bonded to FAM]
MFI [2]: 29.3

Ac-PDPEG-FAM [Example 3]
MFI [1]: 18.9

Ac-PDPDPDPDPDPDG-FAM (Ac-PDPDPDPDPDPDG-{FAM}) [Example 7, construct: N-terminally acetylated peptide 7 bonded to FAM]
MFI [2]: 27.5

Ac-PDPEPDPEPDPEG-FAM (Ac-PDPEPDPEPDPEG-{FAM}) [Example 9, construct: N-terminally acetylated peptide 9 bonded to FAM]
MFI [2]: 25.1
